Test results reported in US12011476B2, “Treatments of oxidative stress conditions” (The University of Vermont and State Agricultural College, priority 2012, dated 2024).

Experiments:
Assay type in all cases: cell-based, murine
Fas-SH = assay: Labeling of free sulfhydryls of Fas (Fas-SH) with MPB, oxidative processing; details: FasL-stimulated cells
Description: Microscopy: Cells were fixed in 4% formalin and permeabilizied with 0.2% Triton-X100 in PBS. Permeabilized cells were blocked in PBS containing 2% BSA for 1 hour. Cells were sequentially incubated with primary antibodies (1:500-rabbit anti-ERp57/mouse anti-Fas) and secondary antibodies (1:1000-anti-rabbit-Alexa Fluor 488/anti-mouse Alexa Fluor 647). The nucleus was stained with DAPI (1:4000). Images were acquired using a Zeiss LSM 510 META Confocal Laser Scanning Imaging System. Images were captured at 40× magnification in oil immersion. The image files were converted to Tiff format. Brightness and contrast were adjusted equally in all images. Labeling of free sulfhydryls using biotinylated N-ethyl maleimide (MPB): Cells were lysed in HEPES buffer, pH 7.4 containing 0.5% NP40, with 150 micromolar MPB for 1 hour at ambient temperature. Lysates were centrifuged at 14,000 rpm and passed through a microbiospin (Bio-Rad) column to separate free MPB. The eluent whole cell lysate was immunoprecipitated using an anti-Fas antibody and sequentially probed using streptavidin HRP and anti-Fas antibody.
The transmembrane domain is underlined. ELD; extracellular ligand binding domain, CDD; Cytoplasmic Death Domain. […] C10 lung epithelial cells were treated with FasL. The lysates were labeled with MPB, and IPed using an anti-Fas antibody. […]

C10 cells = assay: Cell viability assay (MTT) after FasL stimulation; details: MTT assay after stimulation with FasL
Description: Cell viability assay: C10 cells or primary lung fibroblasts were plated in 12-well dishes. The MTT (3-(4,5-dimethylthiazol-2-yl)-2,5-diphenyltetrazolium bromide) assay was performed using known techniques. Results were obtained from 3 independent experiments conducted in triplicate.
Cells were exposed to FasL, and cell lysates processed as in FIG. 1A. Western blots from WCL were sequentially probed for Fas, ERp57 and GSTP1. […] Cells were treated with FasL, and lysates processed as in FIG. 2B. […] Cells were transfected with ERp57 and GSTP1 siRNA (E+P), and 24 hours later were exposed to FasL+M2 crosslinking antibody (FL), or M2 alone for 30 min. Cell lysates were subjected to IP of the DISC. Western blots were sequentially probed for Fas, FADD, procaspase 8, ERp57 and GSTP1. WCL: assessment of the same proteins in whole cell lysates, as a control.

caspase 8 = assay: Caspase-Glo 8 assay after FasL stimulation; details: FasL-stimulated cells, compared to the respective control
Description: (§1) Exposure of cells to FasL: C10 cells were treated with 150 ng/ml FLAG-FasL (Alexis, San Diego, CA), plus 0.5 micrograms/ml anti-FLAG cross linking antibody, M2 (Sigma, St. Louis, MO). Primary lung fibroblasts and MTECs were treated with 300 ng/ml FasL, plus 1 microgram/ml M2. As reagent controls, cells were treated with M2 alone.
(§2) Caspase-Glo assay: Caspase-8 and caspase-3 activities were measured using a Caspase-Glo 8 and Caspase-Glo 3/7 (Promega, Madison, WI) reagents, respectively according to the manufacturer's protocol (Promega, Madison, WI). Results were expressed in Relative Luminescence Units (RLU), after subtraction of background luminescence values. All results were obtained from 3 independent experiments conducted in triplicate.

Fas-SSG [1] = assay: Immunoprecipitation of S-glutathionylated Fas (Fas-SSG) after FasL stimulation; details: FasL-stimulated cells, compared to the respective control (muscimol, DMSO, control siRNA)
Description: as §1
Immunoprecipitation of S-glutathionylated Fas: Immunoprecipitation of S-glutathionylated Fas was performed using established techniques.
C10 lung epithelial cells were stimulated with Flag tagged FasL plus anti-Flag (M2) crosslinking antibody, M2 alone (0), and at the indicated times, lysates were prepared and immunoprecipitated (IP) using an anti-GSH antibody. The subsequent western blot was probed with anti-Fas antibody (top panel). The +DTT control reflects lysates prepared from FasL-stimulated cells at 120 min treated with 25 mM DTT prior to IP with the anti-GSH antibody. Bottom panels: Content of Fas and Grx1 in whole cell lysates (WCL). […] C10 lung epithelial cells were stimulated with FasL plus M2 crosslinking antibody, or M2 alone, and at the indicated times, supernatants were collected. Free GSH was measured. * p<0.05 (ANOVA), compared to M2 controls at the same time points.

caspase 3 = assay: Caspase-Glo 3/7 assay after FasL stimulation; details: FasL-stimulated cells, compared to the respective control
Description: as §1, §2

Fas-SSG [2] = assay: Cell fractionation and IP of Fas-SSG (ER vs cytosol/pm); details: FasL-stimulated cells, vs DMSO vehicle control, FIG. 3D
Description: Cell Fractionation: Cell fractionation was carried out using the Calbiochem ProteoExtractTR (Cat. No. 539790) subcellular proteome extraction kit per the manufacturer's protocol.
Proteins from each fraction were subjected to IP using anti-GSH antibody. Western blots were probed for Fas. 25 micrograms of total protein from each fractions were separated on a SDS-PAGE and probed for Fas, ERp57, GSTP1, Prx1 (cytosolic protein), Flotillinl (Flot1, plasma membrane protein), calreticulin (CRT, an ER restricted protein), histone H3 (nuclear marker). […] Cells were treated with FasL, stained with ERp57, Fas, and the nuclear marker, DAPI. Merged images indicate co-localization of Fas and ERp57. […] Proteins from fractions characterized in FIG. 3A were subjected to IP using anti-GSTP1 antibodies, or control IgG. […] Epithelial cells were treated with FasL, in the presence or absence of Brefeldin A. Cells were fractionated as in FIG. 3A, and proteins from each fraction were subjected to IP using anti-GSH antibody. Western blots were probed for Fas. 25 micrograms of total protein from each fraction was separated on a SDS-PAGE and probed for Fas, ERp57, GSTP1, Prx1 (cytosol), Flot1 (plasma membrane), CRT (ER), H3 (nucleus).

GSTP = target: T1, GSTP (Mus musculus, UniProt P19157); assay: GST activity assay (CDNB-GST) in treated cells; details: cells incubated with 50 micromolar for 2 hours, vs 0.2% DMSO, FIG. 5F
T1 construct: endogenous in cells; host or cells: murine lung epithelial cells (C10)
Description: GST activity assay: The GST activity was determined using a colorimetric activity assay kit (ab65326, Abcam, Cambridge, MA) based on the GST-catalyzed reaction between GSH and the GST substrate, CDNB (1-chloro-2,4-dinitrobenzene). The GST-catalyzed formation of CDNB-GSH produced a dinitrophenyl thioether which can be detected spectrophotometrically at 340 nm.
(§3) The results are expressed as nmol of CDNB […]/min/mg protein. * p<0.05 (Student t-test) compared to DMSO controls. […] Cells were pre-incubated TLK-199 or DMSO for 2 hours, prior to stimulation with FasL. Lysates were processed as in FIG. 1A. Inhibition of GSTP decreased the activities of caspases 8 (FIG. 5H) and 3 (FIG. 5I) induced by FasL. * p<0.05 ANOVA, compared to DMSO controls. […] Mus: muscimol control. * p<0.05 ANOVA, compared to TNF-alpha+CHX controls.

caspase-3 = assay: TNF-alpha plus cycloheximide (CHX) induced caspase-3 activation; details: pre-incubation before TNF-alpha in the presence of cycloheximide, FIG. 5J
Description: as §2
In addition to Fas, the extracellular/ligand binding domains of other members of the TNF receptor superfamily also contained cysteines that form intra-molecular disulfide bridges (—S—S—) to create the ligand binding domain. These experiments therefore determined whether ERp57-mediated oxidative processing regulates TNFR-dependent apoptosis. Cells were incubated with the ERp57 inhibitor, thiomuscimol prior to stimulation with TNF-alpha in the presence of cycloheximide (CHX) to induce apoptosis.
as §3

ERp57 = assay: Protein disulfide isomerase (PDI) assay, insulin reduction, lysates of treated cells
Description: Protein disulfide isomerase (PDI) assay: 10 micrograms of total cell lysates were incubated with folded insulin, fibril protein binding dye for 1 hr. The fluorescence was then measured in a microplate reader set at a excitation of 500 nm and an emission of 603 nm, per the manufacturer's protocol (Proteostat™ PDI assay kit ENZ-51024-KP002). All results were obtained from 3 independent experiments conducted in triplicate.
Pharmacologic inhibition of ERp57 and GSTP1 decreased Fas-SSG and caspase activation: next, the contribution of the catalytic activities of ERp57 and GSTP in mediating S-glutathionylation of Fas, and subsequent activation of caspases, was asessed.
The results are expressed as relative fluorescence units (RFU). * p<0.05 (Student t-test) compared to muscimol treated cells. […] Cell lysates were processed as in FIG. 1A to determine Fas-SSG (FIGS. 5D and 5E). Inhibition of ERp57 decreased caspase 8, and caspase 3 activities. * p<0.05 ANOVA, compared to muscimol-treated cells.

T1 sequence (P19157 2-210): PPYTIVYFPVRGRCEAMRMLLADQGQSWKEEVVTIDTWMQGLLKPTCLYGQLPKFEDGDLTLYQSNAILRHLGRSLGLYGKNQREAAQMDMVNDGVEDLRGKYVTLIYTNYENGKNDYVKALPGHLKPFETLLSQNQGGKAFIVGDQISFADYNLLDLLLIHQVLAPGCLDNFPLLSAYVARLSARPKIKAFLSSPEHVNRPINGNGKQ

| SMILES | caspase 8 activity in response to FasL (caspase 8) | Fas-SSG in response to FasL (Fas-SSG [1]) | caspase 3 activity in response to FasL (caspase 3) | TNF-alpha/CHX-mediated activation of caspase-3 (caspase-3) | further results |
| --- | --- | --- | --- | --- | --- |
| CC(=O)OCOC(=O)CN(CC(=O)OCOC(C)=O)c1ccccc1OCCOc1ccccc1N(CC(=O)OCOC(C)=O)CC(=O)OCOC(C)=O [BAPTA-AM] | decreased | substantially diminished | decreased | – | Fas-SH content (oxidative processing of Fas) after FasL (Fas-SH): completely prevented the loss of Fas-SH groups; cell survival / cell death in response to FasL (C10 cells): increased cell survival |
| C[C@H]1CCC/C=C/[C@@H]2C[C@H](O)C[C@H]2[C@H](O)/C=C/C(=O)O1 [Brefeldin A] | – | – | – | – | movement of Fas-SSG from ER to cytosol/pm (Fas-SSG [2]): Fas-SSG remained restricted to the ER fraction |
| CCOC(=O)[C@@H](N)CCC(=O)N[C@@H](CSCc1ccccc1)C(=O)N[C@@H](C(=O)OCC)c1ccccc1 [TLK199, gamma-glutamyl-S-(benzyl)cysteinyl-R-phenyl glycine diethyl ester] | diminished | diminished | diminished | – | decrease in GSTP activity (GSTP): 80% |
| CC1(C)CC(=O)CC(=O)C1 [dimedone, 5,5-dimethyl-1,3-cyclohexanedione] | – | abolished | – | – | – |
| NCc1cc(=O)[nH]o1 [muscimol] | – | – | – | did not affect apoptosis | – |
| NCc1cc(O)ns1 [thiomuscimol, 5-aminomethyl-3-isothiazolol] | corresponding decreases | significantly attenuated | corresponding decreases | significantly decreased | inhibition of ERp57, as measured by RFU (ERp57; FIG. 10, THM vs DMSO, lysates incubated with Bacitracin for 2 hrs as positive control): exhibited inhibition of ERp57; decrease in insulin reducing activity (ERp57; epithelial cells incubated with thiomuscimol (10 micromolar), compared to muscimol controls, FIG. 5A): ~50% |
